Data as given in patent US4256760A, “Methods of treating mammals suffering from inflammation and pain” (Laboratorios Bago S.A., priority 1979, dated 1981).

Tests used:
[1] = prior art, cited from earlier work; for anti-inflammatory effect (known): administered to mammals
[2] = Anti-inflammatory activity (carrageenin induced edema test); type: in vivo, male rats of Spargue Dawley strain; details: for % Edema Inhibition, 1 hour / % Edema Inhibition, 3 hours / % Edema Inhibition, 5 hours: oral, 30 min before carrageenin, mg/kg: ASA 100, its ester 173, XAA 120, its ester 186, TAA 60, its ester 88; for % Edema Inhibition, 1 hour: 1 hour after carrageenin; for % Edema Inhibition, 3 hours: 3 hours after carrageenin; for % Edema Inhibition, 5 hours: 5 hours after carrageenin; for anti-inflammatory versus antinociceptive action (in words): conclusion
Method: Anti-inflammatory Activity (Carrageenin induced edema test)
Fifteen to twenty male rats of Spargue Dawley strain weighing 150-200 g, were employed for each compound tested. 0.1 ml of 1% carrageenin saline suspension was injected into the subplantar region of the right hind-paw. The test compounds were orally administered 30 minutes prior to the injection of carrageenin and the foot volume was determined 1,3 and 5 hours after the injection of carrageenin. The percent swelling in the foot was obtained by comparing the volume before and after the injection of carrageenin, and the rate of inhibition in the treated animals was calculated.

[3] = Influence on the gastro-intestinal tract (ulceration of the gastric epithelium, Shay et al.); type: in vivo, male rats of Sprague Dawley strain
Method: Influence on the gastro-intestinal tract
Ten male rats of Sprague Dawley strain, weighing 200-300 g were used for each compound tested. According to the method of Shay et al. (Shay, H., Komapov, S. A., Feb. S. S., Meranir, D., Gruenstein, M. Siplet, H. Gastroenterology 5, 43, 1945), under anesthesia, the pylorus was ligated and 4 hours later test compounds were orally administered. The animal was sacrificed 1 hour after compound administration. The stomach was removed and examined for macroscopic damage. The ulceration of the gastric epithelium was evaluated by the following evaluation: 0=no hemorrhage sites; 1=some isolated hemmorrhagic sites; 2=redness of the gastric epithelium; 3=1 to 5 small ulcers with a diameter smaller than 3 mm; 4=many small ulcers; 5=ulcers--greater than 3 mm; 6=perforated ulcer.

[4] = Analgesic activity, Randall-Selitto's test; type: in vivo, male mice of Rockland strain; details: oral, 30 min before carrageenin; control (water) = 0; mg/kg: ASA 100, its ester 173, XAA 50, its ester 77, TAA 50, its ester 73.5
Method: Randall-Selitto's method: Ten male mice of Rockland strain weighing 25 g were used for each compound tested. 0.1 ml of 1% carrageenin saline suspension was injected into the subplantar region of the right foot. The test compounds were orally administered 30 minutes before the injection. At hourly intervals for 3 hours after the carrageenin injection, the pain threshold for the inflammed feet was measured, determining the amount of pressure with an analgesy meter.

[5] = Analgesic activity, tail pressure test; type: in vivo, male mice of Rockland strain; details: oral; control (water) = 0; mg/kg: ASA 100, its ester 173, XAA 50, its ester 77, TAA 50, its ester 73.5
Method: Tail pressure test: Ten male mice of Rockland strain weighing 20-25 g were used for each compound tested. The response threshold on applying pressure to the tail was determined with an analgesy meter at 15 and 60 minutes after oral administration of the test compound. The pressure at which a struggle was elicited was read.

[6] = oral, pylorus ligated, 1 hour after administration, 0=no hemorrhage sites ... 6=perforated ulcer, control 3.0, mg/kg: phenylbutazone 75, ASA 100, its ester 173, XAA 120, its ester 186, TAA 60, its ester 88
[7] = oral, pylorus ligated, 1 hour after administration, versus control (distilled water) 3.0, doses as for Evaluation

SMILES | anti-inflammatory effect (known) [1] | % Edema Inhibition, 1 hour [2] [%] | % Edema Inhibition, 3 hours [2] [%] | % Edema Inhibition, 5 hours [2] [%] | Evaluation (ulceration of the gastric epithelium, score 0-6) ([3]; rat, in vivo, po) | Increase (of ulceration evaluation) ([3]; rat, in vivo, po) | Evaluation (ulceration of the gastric epithelium, score 0-6) [3, 6] | Increase (of ulceration evaluation) [3, 7] | anti-inflammatory versus antinociceptive action (in words) [2] | Relative strength, Randall-Selitto test [4] | Relative strength, Tail pressure test [5] | analgesic effect (known) [1]
O=C(O)c1ccccc1Nc1cccc(C(F)(F)F)c1 [N (3'-trifluoromethylphenyl) anthranylic acid] | known to have an anti-inflammatory effect | 24.3 | 29.3 | 28.3 | 4.9 | 1.9 |  |  |  |  |  | 
Cc1cccc(Nc2ccccc2C(=O)O)c1C [N-(2',3'-xylyl) anthranylic acid (XAA), N (2',3'-dimethylphenyl) anthranylic acid] | known to have an anti-inflammatory effect |  |  |  |  |  | 4.2 | 1.2 |  |  |  | 
O=C(OC1OC(=O)c2ccccc21)c1ccccc1Nc1cccc(C(F)(F)F)c1 (centres unmarked) [Phthalydil N(3'-trifluoromethylphenyl) anthranylate] |  | 35.4 | 40.2 | 37.4 |  |  | 3.5 | 0.5 | act as anti-inflammatory agents more tha as antinociceptive agents |  |  | 
CCCCC1C(=O)N(c2ccccc2)N(c2ccccc2)C1=O [Phenylbutazone] |  |  |  |  |  |  | 5.5 | 2.5 |  |  |  | 
O=C(O)c1cccnc1Nc1cccc(C(F)(F)F)c1 [2 (3'-trifluoromethyl) anilino) pyridine-3-carboxylic acids] | known to have an anti-inflammatory effect |  |  |  |  |  |  |  |  |  |  | 
CC(=O)Oc1ccccc1C(=O)OC1OC(=O)c2ccccc21 (centres unmarked) [Phthalidyl acetylsalicylate, Phthalydil o-acetylsalicylate] |  | 10.2 | 30.30 | 31.0 |  |  | 3.0 |  |  | 1.54 | 1.82 | 
CC(=O)Oc1ccccc1C(=O)O [Acetylsalicylic acid (ASA), o-Acetylsalicylic acid] |  | 3.8 | 24.8 | 25.3 |  |  | 4.1 | 1.1 |  | 1.05 | 1.00 | known to have an analgesic effect
Cc1cccc(Nc2ccccc2C(=O)OC2OC(=O)c3ccccc32)c1C (centres unmarked) [Phthalidyl N-(2',3'-xylyl) anthranylate, Phthalydil N(2',3'-xylyl) anthranylate] |  | 27.4 | 34.2 | 30.4 |  |  | 3.3 | 0.3 | act as anti-inflammatory agents more tha as antinociceptive agents |  |  | 
